Reference: PubChem BioAssay (NCI)
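48-hour exposure; five concentrations; linearly interpolated endpoints. GI50: concentration for 50% inhibition of growth. TGI: total growth inhibition.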 Where a SMILES comes first, the peptide text is derived from it. [ ]: non-standard residue; d: D form. The star is where a group is joined. Cbz = O=C(OCc1ccccc1)*; Aib = CC(C)(N)C(=O)O

What was measured:
Assay in all cases: inhibition of tumour cell growth, NCI panel, 48 h
786-0 renal = tested on: 786-0 renal
COLO 205 colon = tested on: COLO 205 colon
HCC-2998 colon = tested on: HCC-2998 colon
KM12 colon = tested on: KM12 colon
LOX IMVI melanoma = tested on: LOX IMVI melanoma
PC-3 prostate = tested on: PC-3 prostate
RXF 393 renal = tested on: RXF 393 renal
SF-295 CNS = tested on: SF-295 CNS
SW-620 colon = tested on: SW-620 colon
U251 CNS = tested on: U251 CNS
UACC-62 melanoma = tested on: UACC-62 melanoma
NCI/ADR-RES ovarian = tested on: NCI/ADR-RES ovarian

Row | SMILES | TGI (786-0 renal) [µM] | TGI (COLO 205 colon) [µM] | TGI (HCC-2998 colon) [µM] | TGI (KM12 colon) [µM] | TGI (LOX IMVI melanoma) [µM] | TGI (PC-3 prostate) [µM] | TGI (RXF 393 renal) [µM] | TGI (SF-295 CNS) [µM] | TGI (SW-620 colon) [µM] | TGI (U251 CNS) [µM] | TGI (UACC-62 melanoma) [µM] | TGI (NCI/ADR-RES ovarian) [µM] | GI50 (HCC-2998 colon) [µM] | GI50 (KM12 colon) [µM] | GI50 (NCI/ADR-RES ovarian) [µM] | GI50 (PC-3 prostate) [µM] | GI50 (RXF 393 renal) [µM] | GI50 (SF-295 CNS) [µM] | GI50 (UACC-62 melanoma) [µM]
1 | CCOP(=O)(Cc1nc(C#N)c(N)o1)OCC | > 100 | > 100 | > 100 | > 100 | > 100 | > 100 | > 100 | > 100 | > 100 | > 100 | > 100 |  |  |  |  |  |  |  | 
2 | Nc1c(C(=O)O)nnc2cc(Cl)ccc12 | > 100 | > 100 | > 100 | > 100 | > 100 | > 100 |  | > 100 | > 100 | > 100 | > 100 | > 100 |  |  |  |  |  |  | 
3 | CC1=NN2CCC(=O)N=C2S1 | > 100 | > 100 |  | > 100 | > 100 | > 100 | > 100 | > 100 | > 100 | > 100 | > 100 | > 100 |  |  |  |  |  |  | 
4 | OC(CCl)CN1CC[N+]2(CC1)CC[N+]1(CCN(CC(O)CCl)CC1)CC2 (centres undefined) | > 50 | > 50 | > 50 | > 50 |  |  | > 50 | > 50 | > 50 | > 50 |  |  |  |  |  |  |  |  | 
5 | CC(C)N1[C@@H]2CCCC[C@H]2N(C(C)C)[P+]1=O | > 100 | > 100 | > 100 | > 100 |  |  | > 100 | > 100 | > 100 |  | > 100 | > 100 |  |  |  |  |  |  | 
6 | O=C(NNc1nc(-c2ccccc2)cs1)Nc1ccccc1 | 85 | 56.4 | 70.6 | > 100 |  | 39.1 | 36.8 | 83.6 | > 100 | 58.1 | 40.2 | 45.8 |  |  |  |  |  |  | 
7 | Cc1ccc(S(=O)(=O)N/N=C\c2c3ccccc3[n+](C)c3ccccc23)cc1 | > 100 |  | > 100 | > 100 | 52.9 |  | 43.6 | 30.3 | > 100 | 71.3 | 74.6 |  |  |  |  |  |  |  | 
8 | COc1ccc(C2=Nc3c(nc(SC)[nH]c3=O)NC(c3ccccc3)C2)cc1 (centres undefined) | > 100 | 34.8 |  | 30.2 | > 100 | > 100 | 39 | 60.4 | > 100 | 36.4 |  | 77.3 |  |  |  |  |  |  | 
9 | CC(C)=C=CP(=O)(O)c1ccccc1 | > 100 | > 100 | > 100 | > 100 | > 100 | > 100 |  | > 100 | > 100 | > 100 | > 100 | > 100 |  |  |  |  |  |  | 
10 | COC(=O)C(CNC(=O)/C=C/c1ccc(OC(C)=O)c(OC(C)=O)c1)NC(=O)/C=C/c1ccc(OC(C)=O)c(OC(C)=O)c1 (centres undefined) | > 100 | > 100 | > 100 | > 100 | > 100 | > 100 | > 100 | > 100 | > 100 | > 100 | > 100 |  |  |  |  |  |  |  | 
11 | Cc1ccc(S(=O)(=O)NC(=O)NC(CC(=O)O)C(=O)O)cc1 (centres undefined) | > 100 | > 100 |  | > 100 | > 100 | > 100 | > 100 | > 100 | > 100 | > 100 | > 100 | > 100 |  |  |  |  |  |  | 
12 | Nc1ccc(C(=O)O)cc1 | > 100 | > 100 | > 100 | > 100 | > 100 | > 100 |  | > 100 | > 100 | > 100 |  | > 100 |  |  |  |  |  |  | 
13 | CC(=O)c1c(O)cc(O)c(-c2c(C)cc(O)c3c2C(=O)c2cccc(O)c2C3=O)c1O | 31.7 |  |  | 33.5 | 27.4 | 30.6 |  | 26.9 | 36.8 | 27.2 | 29.1 | 42.2 |  |  |  |  |  |  | 
14 | Nc1ncc2c(n1)-c1ccccc1OC2 |  | > 100 | > 100 | > 100 | > 100 |  | > 100 | > 100 | > 100 | > 100 | > 100 | > 100 |  |  |  |  |  |  | 
15 | CC1=NN(c2nc(N)nc(-c3cc4ccccc4oc3=N)n2)C(C)(C)C1 | 29.8 | 31.1 | 28.8 | 34.2 |  | 33 | 43.5 | 32.6 |  | 76.8 | 34.1 | 43.9 |  |  |  |  |  |  | 
16 | COc1cc2nc(-c3cccs3)nc(N3C(c4cc(OC)c(OC)c(OC)c4)=NNC(=O)c4ccccc43)c2cc1OC | > 100 | > 100 |  | > 100 | 45.8 | > 100 |  | 42.6 |  | 50.4 | 35.8 | 9.25 |  |  |  |  |  |  | 

Row | SMILES | TGI (786-0 renal) [µM] | TGI (COLO 205 colon) [µM] | TGI (HCC-2998 colon) [µM] | TGI (KM12 colon) [µM] | TGI (LOX IMVI melanoma) [µM] | TGI (PC-3 prostate) [µM] | TGI (RXF 393 renal) [µM] | TGI (SF-295 CNS) [µM] | TGI (SW-620 colon) [µM] | TGI (U251 CNS) [µM] | TGI (UACC-62 melanoma) [µM] | TGI (NCI/ADR-RES ovarian) [µM] | GI50 (HCC-2998 colon) [µM] | GI50 (KM12 colon) [µM] | GI50 (NCI/ADR-RES ovarian) [µM] | GI50 (PC-3 prostate) [µM] | GI50 (RXF 393 renal) [µM] | GI50 (SF-295 CNS) [µM] | GI50 (UACC-62 melanoma) [µM]
17 | COc1ccc(C2NC(N)=C(C#N)C3=C2C(C)CCC3)cc1OC (centres undefined) | > 100 | > 100 |  | > 100 | > 100 | > 100 | > 100 | > 100 | > 100 | > 100 | > 100 | > 100 |  |  |  |  |  |  | 
18 | NS(=O)(=O)c1ccc(NCc2nc3ccccc3[nH]2)cc1 | > 100 | > 100 |  | > 100 | > 100 | > 100 | > 100 | > 100 |  | > 100 | > 100 | > 100 |  |  |  |  |  |  | 
19 | CNC(=O)C1OC(n2cnc3c(NCc4cccc(I)c4)nc(Cl)nc32)C(O)C1O (centres undefined) | 46.8 | 82.6 |  | 24.3 | 27.2 | 24.1 | 29.6 | 40.4 | 51.6 | 40.4 | 24 | 24 |  |  |  |  |  |  | 
20 | COc1ccc(C2=NN(c3nsc4ccccc34)C(=O)CC2)cc1 |  | > 100 | > 100 | > 100 | > 100 |  | > 100 |  | > 100 | > 100 | > 100 |  |  |  |  |  |  |  | 
21 | CSc1nc(-c2ccccc2)nc(=[N+]2CCOCC2)s1 | > 100 | 98.7 | > 100 | > 100 | > 100 |  | > 100 |  | > 100 | > 100 | > 100 |  |  |  |  |  |  |  | 
22 | CC(C)(NC(=O)C(C)(C)NC(=O)OCc1ccccc1)C(=O)O (Cbz-[Aib]-[Aib]-OH) | > 100 |  | > 100 | > 100 | > 100 | > 100 |  | > 100 | > 100 | > 100 | > 100 | > 100 |  |  |  |  |  |  | 
23 | N=C(N)c1ccc(-c2ccc(-c3ccc(Cl)cc3Cl)s2)nc1 |  |  | 3.17 | 3.19 |  | 3.67 | 3.06 | 3.24 |  |  | 3.65 | 3.64 | 1.74 | 1.76 | 1.88 | 1.86 | 1.67 | 1.74 | 1.9
24 | CC1=C(C(=O)NCc2ccccc2)C(c2ccco2)C(C(=O)NCc2ccccc2)=C(C)N1 |  | > 100 | > 100 | > 100 | > 100 |  | > 100 | > 100 | > 100 | > 100 | 50.6 |  |  |  |  |  |  |  | 
25 | O=[N+]([O-])c1ccc(Nc2cccc3c2[nH]c2c(-c4ccccc4)nccc23)c([N+](=O)[O-])c1 |  | > 100 | > 100 | > 100 | > 100 |  | > 100 | > 100 | > 100 | > 100 | > 100 | > 100 |  |  |  |  |  |  | 
26 | CCOC(=O)C1CCCN1C(=O)c1ccccc1Cl (centres undefined) | > 100 |  | > 100 | > 100 | > 100 |  | > 100 | > 100 | > 100 | > 100 | 88.3 | > 100 |  |  |  |  |  |  | 
27 | Cn1c2ccccc2c2c3c(c4c5ccccc5n(C)c4c21)C(=O)N(c1ccccc1)C3=O | > 100 | > 100 | > 100 | > 100 | > 100 | > 100 |  | > 100 | > 100 | > 100 | > 100 | > 100 |  |  |  |  |  |  | 
28 | Cc1cc(S(=O)(=O)Nc2n[nH]c(Nc3ccccc3)n2)c(SSc2cc(Cl)c(C)cc2S(=O)(=O)Nc2n[nH]c(Nc3ccccc3)n2)cc1Cl |  | > 100 |  | > 100 | > 100 | > 100 | > 10 | > 100 | > 100 | > 100 | > 100 | > 100 |  |  |  |  |  |  | 
29 | Cc1ccc2c(=O)cc(-c3cccc(F)c3)[nH]c2n1 | > 100 | 0.0567 | 0.401 | 1.29 | > 100 |  | > 100 |  | > 100 | > 74.7 | > 100 |  |  |  |  |  |  |  | 
30 | O=S(=O)(O)c1cc(N=[N+]([O-])c2ccc(N=Nc3ccccc3)cc2S(=O)(=O)O)ccc1/C=C/c1ccc(N=[N+]([O-])c2ccc(N=Nc3ccccc3)cc2S(=O)(=O)O)cc1S(=O)(=O)O |  | > 100 | > 100 | > 100 | > 100 |  | > 100 | > 100 | > 100 | > 100 | > 100 | > 100 |  |  |  |  |  |  | 
31 | Clc1ncnc2c1nc(C#Cc1ccccc1)n2C1CCCCO1 (centres undefined) | 3.64 | 2.97 | 3.54 | 3.05 | 4.79 | 11.8 |  | 16.5 | 4.94 | 4.29 | 5.84 | 7.01 |  |  |  |  |  |  | 
